Among the data in patent US11472797B2, “Pesticidally active pyrazole derivatives” (SYNGENTA PARTICIPATIONS AG, priority 2017, dated 2022) are percent effect (mortality or growth inhibition), mortality and melting point values, retold here.

For data set [1], the system named is Plutella xylostella (Diamond Back Moth). In words: Plutella xylostella artificial diet test. The settings on record: 120 h, application rate 200 ppm, L2 larvae, 5 days after infestation, read-out: effect in at least one of the two categories (mortality or growth inhibition). The class given is in vivo. The protocol: Plutella xylostella (Diamond Back Moth):
24-well microtiter plates with artificial diet were treated with aqueous test solutions prepared from 10,000 ppm DMSO stock solutions by pipetting. After drying, the plates were infested with L2 larvae (10 to 15 per well). The samples were assessed for mortality and growth inhibition in comparison to untreated samples 5 days after infestation. The following compounds gave an effect of at least 80% in at least one of the two categories (mortality or growth inhibition) at an application rate of 200 ppm: 1, 2, 3, 4, 5, 6, 7, 8, 9, 11 and 12.

Data set [2] deals with Spodoptera littoralis (Egyptian Cotton Leaf Worm). In words: Spodoptera littoralis cotton leaf disc spray test. The class given is in vivo. As to conditions: foliar, 72 h, application rate 200 ppm, L1 larvae, 3 days after infestation, read-out: control (at least one of mortality, anti-feedant effect, and growth inhibition). As for the experimental part:
Spodoptera littoralis (Egyptian Cotton Leaf Worm)
Cotton leaf discs were placed on agar in 24-well microtiter plates and sprayed with aqueous test solutions prepared from 10,000 ppm DMSO stock solutions. After drying the leaf discs were infested with five L1 larvae. The samples were assessed for mortality, anti-feedant effect, and growth inhibition in comparison to untreated samples 3 days after infestation. Control of Spodoptera littoralis by a test sample is when at least one of mortality, anti-feedant effect, and growth inhibition is higher than the untreated sample.

Data set [3] relates to Thrips tabaci (Onion Thrips). In words: Thrips tabaci sunflower leaf disc spray test. The settings on record: foliar, 144 h, application rate 200 ppm, population of mixed ages, 6 days after infestation. The class given is in vivo. The protocol: Thrips tabaci (Onion Thrips):
Sunflower leaf discs were placed on agar in 24-well microtiter plates and sprayed with aqueous test solutions prepared from 10,000 ppm DMSO stock solutions. After drying the leaf discs were infested with a thrips population of mixed ages. The samples were assessed for mortality 6 days after infestation.

Data set [4] has as its system Diabrotica Balteata, (Corn Root Worm). In words: Diabrotica balteata maize sprout spray test. The class given is in vivo. The settings on record: 96 h, application rate 200 ppm, L2 larvae, 4 days after infestation, read-out: effect in at least one of the two categories (mortality or growth inhibition). As for the experimental part:
Diabrotica Balteata, (Corn Root Worm) Maize sprouts, placed on an agar layer in 24-well microtiter plates were treated with aqueous test solutions prepared from 10,000 ppm DMSO stock solutions by spraying. After drying, the plates were infested with L2 larvae (6 to 10 per well). The samples were assessed for mortality and growth inhibition in comparison to untreated samples 4 days after infestation. The following compounds gave an effect of at least 80% in at least one of the two categories (mortality or growth inhibition) at an application rate of 200 ppm: 1, 2, 3, 5 and 6.

Data set [5] has as its system Euschistus heros (Neotropical Brown Stink Bug). The data set can be described thus: Euschistus heros soybean leaf spray test. Format: in vivo. The settings on record: 120 h, application rate 200 ppm, N2 nymphs, 5 days after infestation, read-out: effect in at least one of the two categories (mortality or growth inhibition). As for the experimental part: Euschistus heros (Neotropical Brown Stink Bug)
Soybean leaves on agar in 24-well microtiter plates were sprayed with aqueous test solutions prepared from 10,000 ppm DMSO stock solutions. After drying the leaves were infested with N2 nymphs. The samples were assessed for mortality and growth inhibition in comparison to untreated samples 5 days after infestation. The following compounds gave an effect of at least 80% in at least one of the two categories (mortality or growth inhibition) at an application rate of 200 ppm: 1

Data set [6] concerns Tetranychus urticae (Two-Spotted Spider Mite). In words: Tetranychus urticae bean leaf disc spray test. The class given is in vivo. As to conditions: foliar, 192 h. As for the experimental part: Tetranychus urticae (Two-Spotted Spider Mite):
Bean leaf discs on agar in 24-well microtiter plates were sprayed with aqueous test solutions prepared from 10,000 ppm DMSO stock solutions. After drying the leaf discs were infested with a mite population of mixed ages. The samples were assessed for mortality on mixed population (mobile stages) 8 days after infestation.

Take `CN(C(=O)c1cc(-c2cc(-c3c(C(F)(F)F)c(OC(F)(F)C(F)C(F)(F)F)nn3C)no2)sc1Cl)C1(C#N)CC1` (stereo not shown) [Example 11, 2-chloro-N-(1-cyanocyclopropyl)-5-[3-[5-(1,1,2,3,3,3-hexafluoropropoxy)-2-methyl-4-(trifluoromethyl)pyrazol-3-yl]isoxazol-5-yl]-N-methyl-thiophene-3-carboxamide]: in data set [1], the percent effect (mortality or growth inhibition) at 200 ppm was at least 80%. Besides, the mortality (as a rule, the share of the test organisms that died) at 200 ppm in data set [2] was at least 80%.
In data set [3], `Cn1nc(OC(F)(F)C(F)C(F)(F)F)c(C(F)(F)F)c1-c1cc(-c2cc(C(=O)NC3(C#N)CC3)c(C#N)s2)on1` (stereo not shown) [Example 4, 2-cyano-N-(1-cyanocyclopropyl)-5-[3-[5-(1,1,2,3,3,3-hexafluoropropoxy)-2-methyl-4-(trifluoromethyl)pyrazol-3-yl]isoxazol-5-yl]thiophene-3-carboxamide] came in with a mortality at 200 ppm of at least 80%. Further, in data set [1], the percent effect (mortality or growth inhibition) at 200 ppm is at least 80%.
Take `Cn1nc(OC(F)(F)C(F)C(F)(F)F)c(C(F)(F)F)c1-c1cc(-c2cc(C(=O)NC3CC3)c(Cl)s2)on1` (stereo not shown) [Example 7, 2-chloro-N-cyclopropyl-5-[3-[5-(1,1,2,3,3,3-hexafluoropropoxy)-2-methyl-4-(trifluoromethyl)pyrazol-3-yl]isoxazol-5-yl]thiophene-3-carboxamide]: the percent effect (mortality or growth inhibition) at 200 ppm in data set [1] was at least 80%. Also, in data set [2], the mortality at 200 ppm was at least 80%.
`CCN(C(=O)c1cc(-c2cc(-c3c(C(F)(F)F)c(OC(F)(F)C(F)C(F)(F)F)nn3C)no2)sc1C#N)C1CC1` (stereo not shown) [Example 3, 2-cyano-N-cyclopropyl-N-ethyl-5-[3-[5-(1,1,2,3,3,3-hexafluoropropoxy)-2-methyl-4-(trifluoromethyl)pyrazol-3-yl]isoxazol-5-yl]thiophene-3-carboxamide]: the mortality at 200 ppm in data set [3] is at least 80%. The percent effect (mortality or growth inhibition) at 200 ppm in data set [1] and in data set [4] was at least 80% throughout.
Regarding `Cn1nc(OC(F)(F)C(F)C(F)(F)F)c(C(F)(F)F)c1-c1cc(-c2cc(C(=O)NC3CC3)c(C#N)s2)on1` (stereo not shown) [Example 1, 2-cyano-N-cyclopropyl-5-[3-[5-(1,1,2,3,3,3-hexafluoropropoxy)-2-methyl-4-(trifluoromethyl)pyrazol-3-yl]isoxazol-5-yl]thiophene-3-carboxamide], the mortality at 200 ppm in data set [3], in data set [2] and in data set [6] was at least 80% each time. The percent effect (mortality or growth inhibition) at 200 ppm in data set [1], in data set [4] and in data set [5] was at least 80% each time.
Regarding `CN(C(=O)c1cc(-c2cc(-c3c(C(F)(F)F)c(OC(F)(F)C(F)C(F)(F)F)nn3C)no2)sc1C#N)C1(C#N)CC1` (stereo not shown) [Example 5, 2-cyano-N-(1-cyanocyclopropyl)-5-[3-[5-(1,1,2,3,3,3-hexafluoropropoxy)-2-methyl-4-(trifluoromethyl)pyrazol-3-yl]isoxazol-5-yl]-N-methyl-thiophene-3-carboxamide], the mortality at 200 ppm in data set [3] and in data set [2] was at least 80% in each case. The percent effect (mortality or growth inhibition) at 200 ppm in data set [1] and in data set [4] was at least 80% in each case.
`CCN(C(=O)c1cc(-c2cc(-c3c(C(F)(F)F)c(OC(F)(F)C(F)C(F)(F)F)nn3C)no2)sc1C#N)C1(C#N)CC1` (stereo not shown) [Example 6, 2-cyano-N-(1-cyanocyclopropyl)-N-ethyl-5-[3-[5-(1,1,2,3,3,3-hexafluoropropoxy)-2-methyl-4-(trifluoromethyl)pyrazol-3-yl]isoxazol-5-yl]thiophene-3-carboxamide]: the mortality at 200 ppm in data set [3] and in data set [2] was at least 80% throughout. For the same compound, the percent effect (mortality or growth inhibition) at 200 ppm in data set [1] and in data set [4] was at least 80% each time.
For `CCN(C(=O)c1cc(-c2cc(-c3c(C(F)(F)F)c(OC(F)(F)C(F)C(F)(F)F)nn3C)no2)sc1Cl)C1CC1` (stereo not shown) [Example 9, 2-chloro-N-cyclopropyl-N-ethyl-5-[3-[5-(1,1,2,3,3,3-hexafluoropropoxy)-2-methyl-4-(trifluoromethyl)pyrazol-3-yl]isoxazol-5-yl]thiophene-3-carboxamide], the percent effect (mortality or growth inhibition) at 200 ppm in data set [1] was at least 80%. Further, the mortality at 200 ppm in data set [2] is at least 80%.
In the case of `CN(C(=O)c1cc(-c2cc(-c3c(C(F)(F)F)c(OC(F)(F)C(F)C(F)(F)F)nn3C)no2)sc1C#N)C1CC1` (stereo not shown) [Example 2, 2-cyano-N-cyclopropyl-5-[3-[5-(1,1,2,3,3,3-hexafluoropropoxy)-2-methyl-4-(trifluoromethyl)pyrazol-3-yl]isoxazol-5-yl]-N-methyl-thiophene-3-carboxamide], the mortality at 200 ppm in data set [3] and in data set [6] was at least 80% throughout. Also, the percent effect (mortality or growth inhibition) at 200 ppm in data set [1] and in data set [4] was at least 80% in each case.
In the case of `Cn1nc(OC(F)(F)C(F)C(F)(F)F)c(C(F)(F)F)c1-c1cc(-c2cc(C(=O)NC3(C#N)CC3)c(Cl)s2)on1` (stereo not shown) [Example 10, 2-chloro-N-(1-cyanocyclopropyl)-5-[3-[5-(1,1,2,3,3,3-hexafluoropropoxy)-2-methyl-4-(trifluoromethyl)pyrazol-3-yl]isoxazol-5-yl]thiophene-3-carboxamide], the melting point (commonly the temperature, or range, at which the solid turns liquid) is 218 to 219 °C.
For `CCN(C(=O)c1cc(-c2cc(-c3c(C(F)(F)F)c(OC(F)(F)C(F)C(F)(F)F)nn3C)no2)sc1Cl)C1(C#N)CC1` (stereo not shown) [Example 12, 2-chloro-N-(1-cyanocyclopropyl)-N-ethyl-5-[3-[5-(1,1,2,3,3,3-hexafluoropropoxy)-2-methyl-4-(trifluoromethyl)pyrazol-3-yl]isoxazol-5-yl]thiophene-3-carboxamide], in data set [1], the percent effect (mortality or growth inhibition) at 200 ppm is at least 80%. The mortality at 200 ppm in data set [2] was at least 80%.
Regarding `CN(C(=O)c1cc(-c2cc(-c3c(C(F)(F)F)c(OC(F)(F)C(F)C(F)(F)F)nn3C)no2)sc1Cl)C1CC1` (stereo not shown) [Example 8, 2-chloro-N-cyclopropyl-5-[3-[5-(1,1,2,3,3,3-hexafluoropropoxy)-2-methyl-4-(trifluoromethyl)pyrazol-3-yl]isoxazol-5-yl]-N-methyl-thiophene-3-carboxamide], the percent effect (mortality or growth inhibition) at 200 ppm in data set [1] is at least 80%. Also, the mortality at 200 ppm in data set [2] is at least 80%.
